The source of these data is article PMC10766962 (Nature Communications, 2024).

Several values for one entry are separate records, joined by “and”; a condition that tells them apart may be missing. Equal entries are not always repeated. Entries after “also recorded” stand apart in the source; their conditions may differ. Where two headings read alike, the source gives them in different places. Positions of bridges follow the written chain, without caps; N, C: chain ends. Non-standard residues stand in square brackets, D forms with d. Residues, ends and D or L forms follow the SMILES beside them. Groups on a side chain read outwards from the residue. *: point of attachment. Acetyl(2-S-cholesteryl) = CC(C)CCC[C@@H](C)[C@H]1CC[C@H]2[C@@H]3CC=C4C[C@@H](SCC(=O)*)CC[C@]4(C)[C@H]3CC[C@]12C; PEG16 = NCCOCCOCCOCCOCCOCCOCCOCCOCCOCCOCCOCCOCCOCCOCCOCCOCCC(=O)O; R8 = C=CCCCCCC[C@@](C)(N)C(=O)O; S5 = C=CCCC[C@](C)(N)C(=O)O

Data set [1] deals with SARS-CoV-2 5-helix bundle (5-HB) protein (Severe acute respiratory syndrome coronavirus 2, UniProt P0DTC2). The data set can be described thus: biochemical. Type of data set: binding.
Data set [2] is classed as physicochemical.
Data set [3] has as its system SARS-CoV-2 WA-1 (Wuhan) isolate. More on the design: species or system Syrian (Golden) hamsters. As to conditions: hamster, in vivo.
Data set [4] shares this test system. More on the design: species or system Syrian (Golden) hamsters. To be noted: hamster, in vivo. The source holds these as a separate data set.
Data set [5] is classed as physicochemical. As to conditions: pH 7.4.
Data set [6] is classed as physicochemical. As to conditions: pH 7.5.
The test system of data set [7] is SARS-CoV-2 B.1.617.2 pseudovirus.
The test system of data set [8] is SARS-CoV-2 B.1.1.529.1 pseudovirus.
Data set [9] concerns SARS-CoV-2 Beta B.1.351 live virus.
For data set [10], the system named is SARS-CoV-2 Delta B.1.617.2 live virus.
The conditions of data set [11]: mouse, in vivo.
Data set [12] is described as follows: in vivo. To be noted: male, C57BL/6, mouse, inhaled or intranasal.
Data set [13] in a line: in vivo. As to conditions: male, Syrian (Golden), hamster, inhaled or intranasal, 2.5 mg/kg, Nasal Tissue.
Data set [14] has as its system GFP-RSV live virus (RSV A2).
[15] abbreviates: 1 mg/kg, RQ-01 Nasal Tissue Concentration.
The mark [16] stands for this setting: 3 mg/kg, RQ-01 Nasal Tissue Concentration.
Setting [17] is: 10 mg/kg, RQ-01 Nasal Tissue Concentration.

`CC[C@H](C)[C@H](NC(=O)CNC(=O)[C@H](CO)NC(=O)[C@@H](NC(=O)[C@H](CC(=O)O)NC(C)=O)[C@@H](C)CC)C(=O)N[C@@H](CC(N)=O)C(=O)N[C@@H](C)C(=O)N[C@@H](CO)C(=O)N[C@H](C(=O)N[C@H](C(=O)N[C@@H](CC(N)=O)C(=O)N[C@H](C(=O)N[C@]1(C)CCCCCCC=CCCC[C@@](C)(C(=O)N[C@@H](CCC(=O)O)C(=O)N[C@H](C(=O)N[C@@H](C)C(=O)N[C@@H](CCCCN)C(=O)N[C@@H](CC(N)=O)C(=O)N[C@@H](CC(C)C)C(=O)N[C@@H](CC(N)=O)C(=O)N[C@@H](CCC(=O)O)C(=O)N[C@@H](CO)C(=O)N[C@@H](CC(C)C)C(=O)N[C@H](C(=O)N[C@@H](CC(=O)O)C(=O)N[C@@H](CC(C)C)C(=O)N[C@@H](CCC(N)=O)C(=O)N[C@@H](CCC(=O)O)C(=O)N[C@@H](CC(C)C)C(=O)NCC(=O)N[C@@H](CCCCNC(=O)CCOCCOCCOCCOCCOCCOCCOCCOCCNC(=O)CO[C@H]2CC[C@@]3(C)C(=CC[C@H]4[C@@H]5CC[C@H]([C@H](C)CCCC(C)C)[C@@]5(C)CC[C@@H]43)C2)C(N)=O)[C@@H](C)CC)C(C)C)NC(=O)[C@H](CC(C)C)NC(=O)[C@H](CCCNC(=N)N)NC(=O)[C@H](CC(=O)O)NC(=O)[C@H]([C@@H](C)CC)NC(=O)[C@H](CCC(=O)O)NC(=O)[C@H](CCCCN)NC1=O)[C@@H](C)CC)C(C)C)C(C)C` [RQ-01]: the response in [1] was half-maximal at 1.9 nM (EC50). Moreover, in data set [2] (25 μM), the “intact compound, % of initial levels” value is “fully preserved”. Further, the “Percent Intact Peptide” value in data set [2] (1 h) was 108.538% and 105.019% and 100.148% and 101.614%. Also, the “Percent Intact Peptide” value in data set [2] (12 h) was 100.519% and 101.487% and 97.3524% and 61.8294% and 103.036% and 91.5274% and 92.844% and 95.276%. Also, in [3], the OP swab titer was 10-20 PFUs; the “lung histopathology (pneumonia global severity score, total lung score)” value is given as “significant protection from the pulmonary sequelae of SARS-CoV-2 infection”; the “viral shedding by OP swab” value is given as “significantly reduced”; the weight loss result was “significant protective effect from weight loss; also recorded: protection from weight loss was also observed”. In data set [4], the “OP swab titers (Day 3)” value was “A subset of hamsters from both RQ-01 treated cohorts exhibited reduced OP swab titers”, the lung viral titers result was “suppression of lung viral titers”, the “transmission to sentinel hamsters” value is “did not prevent transmission” and the “weight loss of sentinels” value is “protection from weight loss”. Besides, the “elution by fast protein liquid chromatography” value in [5] was “eluted as a monodispersed peak”. The circular dichroism analysis entry in [6] was “exhibited α-helical character”. In addition, the “fold by which RQ-01 outperformed SARSHRC-PEG4-chol” value (“fold” below) in data set [7] is 4.7 fold. For the same molecule, the “fold” value in [8] was found to be 23 fold. For the same molecule, the “improvement of antiviral activity compared to the unstapled peptide” value in [9] lay in the range of 24 to 39 fold. Also, the “fold” value in [10] amounted to 5.4 fold. In [11], the clinical observations entry is reported as “no adverse clinical findings”, the “nasal tissue exposure relative to IC90 value” is given as 100-2000 x IC90 and the “nasal tissue levels relative to infectivity assay IC90” value is given as “over 100”. In addition, in data set [11] (pH 6.5), the “peak lung tissue concentration relative to nasal tissue” value was “approximately 1/10th” and the “plasma exposure relative to nasal tissue” value is on record as “approximately 1/1000th”. Besides, in [11] (pH 7.2), the “nasal tissue level by 48 h” value was 1 µM and the peak lung level was 1 µM. Also, the cytotoxicity result in the data set on A549-ACE2 cells was “no cytotoxicity”. In the data set “in vivo [12]” (setting [15]), the level at time molar at 2 h is 16.2 µM and the level at time molar at 4 h is 22.5 µM. Further, the level at time molar at 7 h in “in vivo [12]” (1 mg/kg, RQ-01 Tissue Concentration) was found to be 0.064 µM. In the data set “in vivo [12]” (2 mg/kg, pH 7.2, nasal tissue level, start), the level at time molar turned out to be 10 µM. In the data set “in vivo [12]” (setting [16]), this molecule displayed a level at time molar at 2 h of 27.5 µM, a level at time molar at 4 h of 28.1 µM, a level at time molar at 7 h of 26.4 µM and a level at time molar at 24 h of 18.7 µM. For the same molecule, in “in vivo [12]” (setting [17]), the level at time molar at 2 h stood at 73 µM, the level at time molar at 4 h worked out at 44.9 µM, the level at time molar at 7 h was 59.6 µM and the level at time molar at 24 h turned out to be 25.4 µM. Further, in “in vivo [13]” (RQ-01 tissue concentration), the level at time molar at 4 h is 23.2 µM. This molecule came in with a level at time molar at 4 h in “in vivo [13]” (pH 6.5, RQ-01 tissue concentration) of 28.8 µM.

In [14], `CC[C@H](C)[C@H](NC(=O)[C@H](CO)NC(=O)[C@H](C)NC(=O)[C@H](CC(=O)O)NC(=O)[C@H](Cc1ccccc1)NC(C)=O)C(=O)N[C@@H](CO)C(=O)N[C@@H](CCC(N)=O)C(=O)N[C@H](C(=O)N[C@@H](CC(N)=O)C(=O)N[C@@H](CCC(=O)O)C(=O)N[C@@H](CCCCN)C(=O)N[C@H](C(=O)N[C@@H](CC(N)=O)C(=O)N[C@@H](CCC(N)=O)C(=O)N[C@@H](CO)C(=O)N[C@@H](CC(C)C)C(=O)N[C@]1(C)CCCCCCC=CCCC[C@@](C)(C(=O)N[C@@H](CC(C)C)C(=O)N[C@@H](CC(C)C)C(=O)N[C@@H](Cc2c[nH]cn2)C(=O)N[C@@H](CC(N)=O)C(=O)N[C@H](C(=O)N[C@@H](CCCCNC(=O)CCOCCOCCOCCOCCOCCOCCOCCOCCOCCOCCOCCOCCOCCOCCOCCOCCNC(=O)CS[C@H]2CC[C@@]3(C)C(=CC[C@H]4[C@@H]5CC[C@H]([C@H](C)CCCC(C)C)[C@@]5(C)CC[C@@H]43)C2)C(N)=O)C(C)C)NC(=O)[C@H](CC(=O)O)NC(=O)[C@H](CO)NC(=O)[C@H](CCCCN)NC(=O)[C@H](CCCNC(=N)N)NC(=O)[C@H]([C@@H](C)CC)NC(=O)[C@H](Cc2ccccc2)NC1=O)[C@@H](C)CC)C(C)C` [SLI-RSV] (Ac-FDASISQVNEKINQSL[R8]FIRKSD[S5]LLHNVK([PEG16-Acetyl(2-S-cholesteryl)])-NH2; staple 17-24) yielded an IC50 of 58 nM. The cytotoxicity result in the data set on A549 cells is “no cytotoxicity”.

For orientation: EC50 means the concentration needed to bring the measured effect to its halfway point. In general, IC50 refers to the concentration that inhibits the measured activity by half.
